Assay results published in patent US6214839A, “Substituted 6-alkylphenanthridines” (Byk Gulden Lomberg Chemische Fabrik GmbH, priority 1997, dated 2001).

Tested on: PDE 4
Assay: Inhibition of PDE 4 activity
Type: biochemical
Settings: inhibitory concentration as -log IC50 (mol/l), method of Bauer and Schwabe adapted to microtiter plates

For `CCOc1cc2c(cc1OC)C([C@H]1CC[C@H](C(=O)OC)CC1)=N[C@H]1CCCC[C@@H]21` (relative stereo) [Compound 1], the “-log IC50” value was 7.47.
